Data taken from US20240109865A1, “INDAZOLE COMPOUNDS AS KINASE INHIBITORS” (TYRA BIOSCIENCES, INC., priority 2020, published 2024).

Columns and labels:
FGFR2 = FGFR2 (Homo sapiens (Human), UniProt P21802); assay: Kinase assay, binding constants (Kd), kinase-tagged T7 phage, qPCR
How it was run: (§1)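 Using T7 phage lysates from BL21-derived E. coli, compounds at 0.9% final DMSO competed for kinase binding to ligand-bearing magnetic beads. After elution, qPCR measured remaining kinase, and Kds were fitted by non-linear least squares with the Hill slope fixed at −1.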

FGFR3 = FGFR3 (Homo sapiens (Human), UniProt P22607); assay: as above
Sequence of FGFR3 (P22607 23-806): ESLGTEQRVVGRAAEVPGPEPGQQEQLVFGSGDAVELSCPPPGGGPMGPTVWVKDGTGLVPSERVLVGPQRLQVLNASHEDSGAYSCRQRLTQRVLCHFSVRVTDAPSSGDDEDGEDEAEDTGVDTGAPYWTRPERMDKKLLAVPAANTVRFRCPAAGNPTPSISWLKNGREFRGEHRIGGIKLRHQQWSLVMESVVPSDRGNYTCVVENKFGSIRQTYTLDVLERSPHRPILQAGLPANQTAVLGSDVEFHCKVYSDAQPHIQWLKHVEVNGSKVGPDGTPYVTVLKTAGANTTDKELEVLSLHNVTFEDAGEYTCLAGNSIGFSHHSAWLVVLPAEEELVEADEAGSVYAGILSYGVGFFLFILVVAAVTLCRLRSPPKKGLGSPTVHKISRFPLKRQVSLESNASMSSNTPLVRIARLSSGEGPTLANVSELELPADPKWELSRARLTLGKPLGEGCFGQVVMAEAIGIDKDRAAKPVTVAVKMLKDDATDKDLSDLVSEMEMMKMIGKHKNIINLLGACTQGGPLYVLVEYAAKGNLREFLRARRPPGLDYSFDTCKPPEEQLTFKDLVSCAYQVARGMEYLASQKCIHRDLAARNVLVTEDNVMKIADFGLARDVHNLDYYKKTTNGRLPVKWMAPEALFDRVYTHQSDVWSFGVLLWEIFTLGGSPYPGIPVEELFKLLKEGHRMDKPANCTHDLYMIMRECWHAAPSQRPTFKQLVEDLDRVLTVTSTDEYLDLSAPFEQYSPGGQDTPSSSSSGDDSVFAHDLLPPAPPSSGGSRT
How it was run: as §1

FGFR4 = FGFR4 (Homo sapiens (Human), UniProt P22455); assay: as above
Sequence of FGFR4 (P22455 22-802): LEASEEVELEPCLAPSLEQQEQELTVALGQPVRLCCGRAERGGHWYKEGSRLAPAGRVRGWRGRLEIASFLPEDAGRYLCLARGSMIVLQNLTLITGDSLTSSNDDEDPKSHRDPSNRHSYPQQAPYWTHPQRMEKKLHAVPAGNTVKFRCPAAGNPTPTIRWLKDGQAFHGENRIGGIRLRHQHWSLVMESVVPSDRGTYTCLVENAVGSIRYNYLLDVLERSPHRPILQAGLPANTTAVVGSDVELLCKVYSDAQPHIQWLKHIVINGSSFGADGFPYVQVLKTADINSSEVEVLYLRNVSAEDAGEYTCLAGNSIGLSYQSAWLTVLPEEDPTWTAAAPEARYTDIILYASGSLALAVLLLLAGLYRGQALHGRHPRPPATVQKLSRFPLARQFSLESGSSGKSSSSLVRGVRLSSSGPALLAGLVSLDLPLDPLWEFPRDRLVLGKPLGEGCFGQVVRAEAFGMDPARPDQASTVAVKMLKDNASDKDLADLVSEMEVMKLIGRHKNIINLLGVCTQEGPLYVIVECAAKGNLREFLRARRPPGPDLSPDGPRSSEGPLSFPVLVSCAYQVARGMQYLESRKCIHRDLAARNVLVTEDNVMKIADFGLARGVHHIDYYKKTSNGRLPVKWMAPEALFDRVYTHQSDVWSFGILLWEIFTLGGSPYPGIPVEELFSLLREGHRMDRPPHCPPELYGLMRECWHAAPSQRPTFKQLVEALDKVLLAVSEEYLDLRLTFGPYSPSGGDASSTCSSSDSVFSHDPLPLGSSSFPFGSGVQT
How it was run: as §1

FGFR1 = FGFR1 (Homo sapiens (Human), UniProt P11362); assay: as above
Sequence of FGFR1 (P11362 22-822): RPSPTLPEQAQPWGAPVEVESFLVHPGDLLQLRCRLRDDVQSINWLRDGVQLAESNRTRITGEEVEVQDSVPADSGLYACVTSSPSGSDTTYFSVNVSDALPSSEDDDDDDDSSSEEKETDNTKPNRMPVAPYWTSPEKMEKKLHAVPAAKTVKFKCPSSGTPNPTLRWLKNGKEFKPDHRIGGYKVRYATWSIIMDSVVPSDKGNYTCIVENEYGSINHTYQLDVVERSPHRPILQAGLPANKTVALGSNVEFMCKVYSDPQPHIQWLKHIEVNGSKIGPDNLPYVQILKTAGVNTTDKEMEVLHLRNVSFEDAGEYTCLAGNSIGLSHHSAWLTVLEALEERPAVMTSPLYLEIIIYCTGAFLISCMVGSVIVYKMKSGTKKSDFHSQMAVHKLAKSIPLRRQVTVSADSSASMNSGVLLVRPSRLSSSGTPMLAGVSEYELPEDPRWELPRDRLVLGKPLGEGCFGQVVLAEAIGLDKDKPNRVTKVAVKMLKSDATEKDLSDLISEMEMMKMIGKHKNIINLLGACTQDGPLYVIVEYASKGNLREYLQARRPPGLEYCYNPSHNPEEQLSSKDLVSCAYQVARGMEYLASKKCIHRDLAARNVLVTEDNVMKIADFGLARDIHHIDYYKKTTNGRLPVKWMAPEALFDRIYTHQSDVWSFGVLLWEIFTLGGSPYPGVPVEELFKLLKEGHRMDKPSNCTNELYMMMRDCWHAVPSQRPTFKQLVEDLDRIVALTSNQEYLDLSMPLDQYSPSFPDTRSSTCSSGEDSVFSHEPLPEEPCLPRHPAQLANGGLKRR
How it was run: as §1

FGFR3 (V555M) = FGFR3 (V555M) (Homo sapiens (Human), UniProt P22607, V555M); assay: as above; conditions: V555M mutant
Sequence of FGFR3 (V555M) (P22607 23-806 V555M): as the sequence (P22607 23-806) above, with V533M counted along it
How it was run: as §1

FGFR1-BCR Ba/F3 cells = FGFR1-BCR Ba/F3 cells (Homo sapiens, UniProt P11362); assay: Ba/F3 cell viability assay (CellTiter-Glo 2.0), FGFR1-BCR Ba/F3; format: cell-based; conditions: read-out: Ba/F3 Cells FGFR1 (IC50 nM), 48 hours, Cell Titer Glo 2.0
Sequence of FGFR1-BCR Ba/F3 cells (P11362 22-822 limits assumed, change not shown): as the sequence (P11362 22-822) above
Source text: (§2) Experimental Purpose: Recombinant kinase fusions are transduced into parental Ba/F3, which becomes dependent upon this constitutive kinase activity for IL3-independent survival. Inhibition of kinase activity leads to cell death, which is monitored using CellTiter-Glo® 2.0 (Promega) which measures intracellular ATP concentration that in turn serves as a marker for viability. FGFR1-BCR Ba/F3 and FGFR3-BAIAP2L1 Ba/F3 were obtained from Advanced Cellular Dynamics (Seattle, WA)
(§3) Cell Viability Assay Procedure: Cell Titer-Glo® 2.0 Luminescent cell viability assay reagent was purchased from Promega (Madison, WI). FGFR1-BCR Ba/F3 and FGFR3-BAIAP2L1 Ba/F3 cells were cultured in RPMI1640 media supplemented with 10% fetal bovine serum. Cultures were maintained at 37° C. in a humidified atmosphere of 5% C02 and 95% air.
(§4) Cells were plated in 96-well clear bottom/white plates (Corning #3903) at 10,000 cells/well in 100 μl of media, incubated overnight. The next day, test compound DMSO stock solutions were made at 10 mM and 2 μM final concentration. Compounds were then added to cells in a 9-dose, 10-fold dilution series starting at 30 μM with an HP 300e Digital Dispenser (each dose was applied in triplicate). DMSO was backfilled to each well up to 301 nL total volume of test compound+DMSO, and a total of 301 nL DMSO was added to a control/no test compound well in triplicate. The cells in cell culture plates were incubated with the compounds at 37° C. and 5% C02 for 48 hours. Then 50 μl of Cell Titer Glo 2.0 reagent was added to each well of the cell culture plates. The contents were covered from light and mixed on an orbital shaker at room temperature for 10 min. Luminescence was recorded by a Synergy H1 Microplate Reader (Biotek, Winooski, VT). Cells were assessed as a percentage of DMSO only treated control cells. Curves were plotted and IC50 values were calculated using the GraphPad Prism 8 program based on a sigmoidal dose-response equation (4 parameter).

[1] = biological target: FGFR3-BAIAP2L1 Ba/F3 cells (Homo sapiens, UniProt P22607); assay: Ba/F3 cell viability assay (CellTiter-Glo 2.0), FGFR3-BAIAP2L1 Ba/F3; format: cell-based; conditions: for Ba/F3 FGFR1/FGFR3 Selectivity: FGFR3 > FGFR1 selectivity ratio in Ba/F3 FGFR fusion cell based assays; for IC50: read-out: Ba/F3 Cells FGFR3 (IC50 nM), FGFR3-BAIAP2L1 Ba/F3 cells, 48 hours, Cell Titer Glo 2.0
Sequence of FGFR3-BAIAP2L1 Ba/F3 cells (P22607 23-806 limits assumed, change not shown): as the sequence (P22607 23-806) above
Source text: as §2, §3, §4

Sequence of FGFR2 (P21802 22-821): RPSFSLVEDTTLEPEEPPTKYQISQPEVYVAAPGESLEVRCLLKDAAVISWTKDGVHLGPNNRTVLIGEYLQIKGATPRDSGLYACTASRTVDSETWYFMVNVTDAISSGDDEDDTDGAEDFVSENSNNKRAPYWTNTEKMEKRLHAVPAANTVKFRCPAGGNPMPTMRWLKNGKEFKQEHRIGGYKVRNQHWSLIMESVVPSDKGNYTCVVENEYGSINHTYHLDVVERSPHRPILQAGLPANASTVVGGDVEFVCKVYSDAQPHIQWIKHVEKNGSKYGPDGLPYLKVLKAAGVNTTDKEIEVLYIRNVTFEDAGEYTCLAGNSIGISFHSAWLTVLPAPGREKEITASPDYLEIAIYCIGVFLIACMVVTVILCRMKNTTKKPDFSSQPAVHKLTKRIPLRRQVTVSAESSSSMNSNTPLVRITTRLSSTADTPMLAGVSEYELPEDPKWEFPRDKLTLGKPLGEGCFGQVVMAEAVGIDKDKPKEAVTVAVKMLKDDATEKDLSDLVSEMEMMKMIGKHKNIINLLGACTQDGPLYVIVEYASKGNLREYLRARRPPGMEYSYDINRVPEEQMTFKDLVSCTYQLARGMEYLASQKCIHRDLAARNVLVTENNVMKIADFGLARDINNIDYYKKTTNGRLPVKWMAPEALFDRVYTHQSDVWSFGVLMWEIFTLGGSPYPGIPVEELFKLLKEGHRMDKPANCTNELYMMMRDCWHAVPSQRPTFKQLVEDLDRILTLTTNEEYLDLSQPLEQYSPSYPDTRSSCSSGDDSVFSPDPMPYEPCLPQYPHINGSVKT

SMILES | Kd (FGFR2) [nM] | Kd (FGFR3) [nM] | Kd (FGFR4) [nM] | Kd (FGFR1) [nM] | Kd (FGFR3 (V555M)) [nM] | IC50 (FGFR1-BCR Ba/F3 cells) [nM] | Ba/F3 FGFR1/FGFR3 Selectivity [1] | IC50 [1] [nM]
C[C@@H](Oc1ccc2[nH]nc(-c3ccc(C4CCN(S(C)(=O)=O)CC4)nc3)c2c1)c1c(Cl)cncc1Cl [Example 70, 5-[(1R)-1-(3,5-dichloro-4-pyridyl)ethoxy]-3-[6-(1-methylsulfonyl-4-piperidyl)-3-pyridyl]-1H-indazole] | 1 to 20 | 1 to 20 | 1 to 20 | 1 to 20 | 1 to 20 | 20 to 100 | 20 | 1 to 20
C[C@@H](Oc1ccc2[nH]nc(-c3ccc(C4CCN(C(=O)N(C)C)CC4)nc3)c2c1)c1c(Cl)cncc1Cl [Example 71, 4-[5-[5-[(1R)-1-(3,5-dichloro-4-pyridyl)ethoxy]-1H-indazol-3-yl]-2-pyridyl]-N,N-dimethyl-piperidine-1-carboxamide] | 1 to 20 | 1 to 20 | 1 to 20 | 1 to 20 | 1 to 20 | 20 to 100 | 15 | 1 to 20
C[C@@H](Oc1ccc2[nH]nc(-c3ccc(C4CCN(C(N)=O)CC4)nc3)c2c1)c1c(Cl)cncc1Cl [Example 72, 4-[5-[5-[(1R)-1-(3,5-dichloro-4-pyridyl)ethoxy]-1H-indazol-3-yl]-2-pyridyl]piperidine-1-carboxamide] | 1 to 20 | 1 to 20 | 1 to 20 | 1 to 20 | 1 to 20 | 20 to 100 | 15 | 1 to 20
C[C@@H](Oc1ccc2[nH]nc(-c3ccc(N4CC5(CNC5)OC4=O)nc3)c2c1)c1c(Cl)cncc1Cl [Example 73, 7-[5-[5-[(1R)-1-(3,5-dichloro-4-pyridyl)ethoxy]-1H-indazol-3-yl]-2-pyridyl]-5-oxa-2,7-diazaspiro[3.4]octan-6-one] | 20 to 100 | 1 to 20 | 1 to 20 | 1 to 20 | 1 to 20 | 100 to 300 | 11 | 20 to 100
C[C@@H](Oc1ccc2[nH]nc(-c3ccc(N4CC5(CCNCC5)OC4=O)nc3)c2c1)c1c(Cl)cncc1Cl [Example 74, 3-[5-[5-[(1R)-1-(3,5-dichloro-4-pyridyl)ethoxy]-1H-indazol-3-yl]-2-pyridyl]-1-oxa-3,8-diazaspiro[4.5]decan-2-one] | 1 to 20 | 1 to 20 | 1 to 20 | 1 to 20 | 1 to 20 | 100 to 300 | 6 | 20 to 100
C[C@@H](Oc1ccc2[nH]nc(-c3ccc(N4CC5(CCN(C)CC5)OC4=O)nc3)c2c1)c1c(Cl)cncc1Cl [Example 75, 3-[5-[5-[(1R)-1-(3,5-dichloro-4-pyridyl)ethoxy]-1H-indazol-3-yl]-2-pyridyl]-8-methyl-1-oxa-3,8-diazaspiro[4.5]decan-2-one] | 1 to 20 | 1 to 20 | 1 to 20 | 1 to 20 | 1 to 20 | 100 to 300 | 14 | 1 to 20
C[C@@H](Oc1ccc2[nH]nc(-c3ccc(N4CCC5(CC4)CCS(=O)(=O)C5)nc3)c2c1)c1c(Cl)cncc1Cl [Example 78, 8-[5-[5-[(1R)-1-(3,5-dichloro-4-pyridyl)ethoxy]-1H-indazol-3-yl]-2-pyridyl]-2λ^6-thia-8-azaspiro[4.5]decane 2,2-dioxide] | 1 to 20 | 1 to 20 | 1 to 20 | 1 to 20 | 1 to 20 | 20 to 100 | 13 | 1 to 20
C[C@@H](Oc1ccc2[nH]nc(-c3cnn(C4CCN(CCO)CC4)c3)c2c1)c1c(Cl)cncc1Cl [Example 79, 2-[4-[4-[5-[(1R)-1-(3,5-dichloro-4-pyridyl)ethoxy]-1H-indazol-3-yl]pyrazol-1-yl]-1-piperidyl]ethanol] | 1 to 20 | 1 to 20 | 1 to 20 | 1 to 20 | 1 to 20 | 20 to 100 | 14 | 1 to 20
Cc1ncc(Cl)c([C@@H](C)Oc2ccc3[nH]nc(-c4cnn(C5CCN(C)CC5)c4)c3c2)c1Cl [Example 80, 5-[(1R)-1-(3,5-dichloro-2-methyl-4-pyridyl)ethoxy]-3-[1-(1-methyl-4-piperidyl)pyrazol-4-yl]-1H-indazole] | 1 to 20 | 1 to 20 | 100 to 300 | 1 to 20 | 1 to 20 | 100 to 300 | 17 | 1 to 20
C[C@@H](Oc1ccc2[nH]nc(-c3cnn(C4CCN(C(=O)CCN(C)C)CC4)c3)c2c1)c1c(Cl)cncc1Cl [Example 82, 1-[4-[4-[5-[(1R)-1-(3,5-dichloro-4-pyridyl)ethoxy]-1H-indazol-3-yl]pyrazol-1-yl]-1-piperidyl]-3-(dimethylamino)propan-1-one] | 1 to 20 | 1 to 20 | 20 to 100 | 1 to 20 | 1 to 20 | 100 to 300 | 11 | 1 to 20
C[C@@H](Oc1ccc2[nH]nc(-c3cnn(C4CCN(C5CCC5)CC4)c3)c2c1)c1c(Cl)cncc1Cl [Example 90, 3-[1-(1-cyclobutyl-4-piperidyl)pyrazol-4-yl]-5-[(1R)-1-(3,5-dichloro-4-pyridyl)ethoxy]-1H-indazole] | 1 to 20 | 1 to 20 | 20 to 100 | 1 to 20 | 1 to 20 | 20 to 100 | 10 | 1 to 20
CCN1CC[C@@H](n2cc(-c3n[nH]c4ccc(O[C@H](C)c5c(Cl)cncc5Cl)cc34)cn2)C1 [Example 91, 5-[(1R)-1-(3,5-dichloro-4-pyridyl)ethoxy]-3-[1-[(3R)-1-ethylpyrrolidin-3-yl]pyrazol-4-yl]-1H-indazole] | 1 to 20 | 1 to 20 | 20 to 100 | 1 to 20 | 1 to 20 | 100 to 300 | 8 | 1 to 20
Cc1ncc(Cl)c([C@@H](C)Oc2ccc3[nH]nc(-c4cnn(C5CCNCC5)c4)c3c2)c1Cl [Example 92, 5-[(1R)-1-(3,5-dichloro-2-methyl-4-pyridyl)ethoxy]-3-[1-(4-piperidyl)pyrazol-4-yl]-1H-indazole] | 1 to 20 | 1 to 20 | 20 to 100 | 1 to 20 | 1 to 20 | 100 to 300 | 18 | 20 to 100
C[C@@H](Oc1ccc2[nH]nc(-c3ccc(N4CC5(CCN5S(C)(=O)=O)C4)nc3)c2c1)c1c(Cl)cncc1Cl [Example 100, 5-[(1R)-1-(3,5-dichloro-4-pyridyl)ethoxy]-3-[6-(1-methylsulfonyl-1,6-diazaspiro[3.3]heptan-6-yl)-3-pyridyl]-1H-indazole] | 1 to 20 | 1 to 20 | 1 to 20 | 1 to 20 | 1 to 20 | > 300 | 22 | 1 to 20
Cc1ncc(Cl)c([C@@H](C)Oc2ccc3[nH]nc(-c4cnn(C5CCOCC5)c4)c3c2)c1Cl [Example 104, 5-[(1R)-1-(3,5-dichloro-2-methyl-4-pyridyl)ethoxy]-3-(1-tetrahydropyran-4-ylpyrazol-4-yl)-1H-indazole] | 1 to 20 | 1 to 20 | 20 to 100 | 20 to 100 | 1 to 20 | > 300 | 10 | 20 to 100
CC(Oc1ccc2[nH]nc(-c3cnn(C4CCN(C5COC5)CC4)c3)c2c1)c1c(Cl)ccnc1Cl (centres unmarked) [Example 108, 5-[1-(2,4-dichloro-3-pyridyl)ethoxy]-3-[1-[1-(oxetan-3-yl)-4-piperidyl]pyrazol-4-yl]-1H-indazole] | 1 to 20 | 1 to 20 | 20 to 100 | 20 to 100 | 1 to 20 | 100 to 300 | 14 | 1 to 20
